Experimental data published in US9144557B2, “Hematopoietic growth factor mimetic small molecule compounds and their uses” (Ligand Pharmaceuticals Inc., priority 2009, dated 2015).

Each compound was assayed on UT7/EPO Cell line (assay: Cell Proliferation Assay (UT7/EPO, ViaLight Plus)). Settings: proliferative effect; compounds at 10 uM; UT7/EPO cells starved of EPO overnight; 72 hours at 37° C.; ViaLight Plus kit.
Format: cell-based, human
Procedure: The primary testing for the examplfied compounds was performed in UT7/EPO Cell line. UT7/EPO is human leukemia cell line, obtained from Dr. Norio Komatsu (Blood, Vol 82 (2), pp 456-464, 1993). These cells express endogenous EPO receptor and are dependant upon EPO for growth and proliferation. Briefly, the cells were starved of EPO overnight and plated in 96 or 384 well plates. The compounds were added to the cells at 10 uM concentration. The plates were then incubated at 37° C. for 72 hours. The proliferative effect of the compounds was measured by a commercially available kit from Lonza (ViaLight Plus).

| SMILES | Activity (%) |
| --- | --- |
| CC(=O)Nc1ccc2[nH]c(-c3ccc(C(=O)Nc4ccc(N5CCOCC5)cc4)cc3)nc2c1 [Compound 454, 4-(5-Acetamino-1H-benzimidazol-2-yl)-N-(4-morpholinophenyl)benzamide] | 16 |
| O=C(Nc1ccc(N2CCOCC2)cc1)c1ccc(-c2nc3ccccc3[nH]2)cc1 [Compound 458, 4-(1H-Benzimidazol-2-yl)-N-(4-morpholinophenyl)benzamide] | 10 |
| O=C(CNC(=O)c1ccc(-c2ccc(C(=O)NCC(=O)Nc3ccc(N4CCOCC4)cc3)cc2)cc1)Nc1ccc(N2CCOCC2)cc1 [Compound 465, N,N′-bis(2-(4-Morpholinophenylamino)-2-oxoethyl)biphenyl-4,4′-dicarboxamide] | 18 |
| COc1ccc(-c2cc(NC(=O)c3ccc(C(=O)Nc4cc(-c5ccc(OC)cc5)[nH]n4)cc3)n[nH]2)cc1 [Compound 473, N,N′-bis(5-(4-Methoxyphenyl)-1H-pyrazol-3-yl)terephthalamide] | 11 |
| O=C(Nc1ccc2[nH]c(-c3ccc(-c4ccccn4)cc3)nc2c1)c1ccccc1 [Compound 479, N-(2-(4-(Pyridin-2-yl)phenyl)-1H-benzimidazol-5-yl)benzamide] | 15 |
| CCNc1ccc(C(=O)c2ccc(NC(=O)c3ccc(N4CCOCC4)cc3)cc2)cc1 [Compound 484, N-(4-(4-Ethylaminobenzoyl)phenyl)-4-morpholinobenzamide] | 16 |
| O=C(Nc1ccc(C(=O)c2ccc(NC(=O)c3ccsc3)cc2)cc1)c1ccc(N2CCOCC2)cc1 [Compound 490, N-(4-(4-(3-Thienylcarboxamido)benzoyl)phenyl)-4-morpholinobenzamide] | 15 |
| Cc1cc(C(=O)Nc2ccc(C(=O)c3ccc(NC(=O)c4ccc(N5CCOCC5)cc4)cc3)cc2)[nH]n1 [Compound 500, 3-Methyl-N-(4-(4-(4-morpholinobenzamido)benzoyl)phenyl)-1H-pyrazole-5-carboxamide] | 19 |
| O=C(Nc1ccc2c(cnn2-c2ccc(NC(=O)c3ccc4cc[nH]c4c3)cc2)c1)c1ccc(N2CCC(O)CC2)cc1 [Compound 510, N-(4-(5-(4-(4-Hydroxypiperidin-1-yl)benzamido)-1H-indazol-1-yl)phenyl)-1H-indole-6-carboxamide] | 17 |
| O=C(Nc1ccc2c(cnn2-c2ccc(NCC3CC3)cc2)c1)c1ccc(N2CCOCC2)cc1 [Compound 530] | 11 |
| O=C(Nc1ccc2nn(-c3ccc([N+](=O)[O-])cc3)cc2c1)c1ccc(N2CCOCC2)cc1 [Compound 540, 4-Morpholino-N-(2-(4-nitrophenyl)-2H-indazol-5-yl)benzamide] | 17 |
| CN1CCN(C(=O)Nc2ccc(-n3ncc4cc(NC(=O)c5ccc(N6CCOCC6)cc5)ccc43)cc2)CC1 [Compound 550, 4-Methyl-N-(4-(5-(4-morpholinobenzamido)-1H-indazol-1-yl)phenyl)piperazine-1-carboxamide] | 9 |
| O=C(Nc1ccc2c(c1)ncn2-c1ccc(NC(=O)C2CC2)cc1)c1ccc(N2CCC(O)CC2)cc1 [Compound 560, N-(4-(5-(4-(4-Hydroxypiperidin-1-yl)benzamido)-1H-benzimidazol-1-yl)phenyl)cyclopropylcarboxamide] | 14 |
| O=C(Nc1ccc(Nc2ccc(NC(=O)c3cccc(O)c3)cc2)cc1)c1cccc(O)c1 [Compound 570, N,N′-(4,4′-Azanediylbis(4,1-phenylene))bis(3-hydroxybenzamide)] | 11 |
| Nc1ccc(C(=O)Nc2ccc(Nc3ccc(NC(=O)c4ccc(N)cc4)cc3)cc2)cc1 [Compound 580, N,N′-(4,4′-Azanediylbis(4,1-phenylene))bis(4-aminobenzamide)] | 16 |
| O=C(Nc1ccc(Nc2ccc(NC(=O)c3ccc4[nH]cnc4c3)cc2)cc1)c1ccc2[nH]cnc2c1 [Compound 590, N,N′-(4,4′-Azanediylbis(4,1-phenylene))bis(1H-benzimidazole-5-carboxamide)] | 12 |
| O=C(Nc1ccc(C(=O)c2ccc(NC(=O)c3ccno3)cc2)cc1)c1ccc(N2CCOCC2)cc1 [Compound 600, 4-Morpholino-N-(4-(4-(isoxazole-5-carboxamido)benzoyl)phenyl)benzamide] | 11 |
| O=C(Nc1ccc(C(=O)c2ccc(NC(=O)c3c[nH]nn3)cc2)cc1)c1ccc(N2CCOCC2)cc1 [Compound 610, 4-Morpholino-N-(4-(4-(1,2,3-triazole-4-carboxamido)benzoyl)phenyl)benzamide] | 14 |
| Cc1cc(C(=O)Nc2ccc(C(=O)c3ccc(NC(=O)c4ccc(N5CCOCC5)cc4)cc3)cc2)cc(Cl)n1 [Compound 620, 4-Morpholino-N-(4-(4-(2-chloro-6-methylpyridine-4-carboxamido)benzoyl)phenyl)benzamide] | 18 |

| SMILES | Activity (%) |
| --- | --- |
| O=C(Nc1ccc(N2CCOCC2)cc1)c1ccc(-c2nc3ccc(OCc4ccccc4)cc3[nH]2)cc1 [Compound 639, 4-(6-Benzyloxy-1H-benzo[d]imidazol-2-yl)-N-(4-morpholinophenyl)benzamide] | 15 |
| O=C(Nc1ccc2cc[nH]c2c1)c1ccc(-c2nc3ccc(-c4cccnc4)cc3[nH]2)cc1 [Compound 650, N-(1H-indol-6-yl)-4-(6-(pyridin-3-yl)-1H-benzo[d]imidazol-2-yl)-benzamide] | 13 |
| Cc1noc(COc2ccc3nc(-c4ccc(C(=O)Nc5ccc6cc[nH]c6c5)cc4)[nH]c3c2)n1 [Compound 660, 4-(6-((3-Methyl-1,2,4-oxadiazol-5-yl)methoxy)-1H-benzo[d]imidazol-2-yl)-N-(1H-indol-6-yl)benzamide] | 14 |
| COCCOc1ccc2nc(-c3ccc(C(=O)Nc4ccc(N5CCC(O)CC5)cc4)cc3)[nH]c2c1 [Compound 670, N-(4-(4-Hydroxypiperidin-1-yl)phenyl)-4-(6-(2-methoxyethoxy)-1H-benzo[d]imidazol-2-yl)benzamide] | 8 |
| O=C(C1CC1)N1CCN(c2ccc(-c3nc4ccc(-c5ccc(O)cc5)cc4[nH]3)cc2)CC1 [Compound 680, Cyclopropyl(4-(4-(6-(4-hydroxyphenyl)-1H-benzo[d]imidazol-2-yl)phenyl)piperazin-1-yl)methanone] | 10 |
| O=C(Nc1ccc(C(=O)c2ccc(NC(=O)c3cccc4cc[nH]c34)cc2)cc1)c1ccc(N2CCC(O)CC2)cc1 [Compound 690, N-(4-(4-(4-(4-Hydroxypiperidin-1-yl)benzamido)benzoyl)phenyl)-1H-indolyl-7-carboxamide] | 16 |
| Cn1nccc1C(=O)Nc1ccc(C(=O)c2ccc(NC(=O)c3ccc(N4CCC(O)CC4)cc3)cc2)cc1 [Compound 720, N-(4-(4-(4-(4-Hydroxypiperidin-1-yl)benzamido)benzoyl)phenyl)-1-methyl-1H-pyrazole-5-carboxamide] | 16 |
| Cn1cccc1C(=O)Nc1ccc(C(=O)c2ccc(NC(=O)c3ccc(N4CCC(O)CC4)cc3Cl)cc2)cc1 [Compound 730, N-(4-(4-(2-Chloro-4-(4-hydroxypiperidin-1-yl)benzamido)benzoyl)phenyl)-1-methyl-1H-pyrrole-2-carboxamide] | 18 |
| Cn1cccc1C(=O)Nc1ccc(N(C(=O)c2cccn2C)c2ccc(NC(=O)c3ccc(N4CCC(O)CC4)cc3)cc2)cc1 [Compound 745] | 17 |
| Cc1ccc(C(=O)Nc2ccc(Nc3ccc(NC(=O)c4ccc(N5CCC(O)CC5)cc4)cc3)c(F)c2)n1C [Compound 760, N-(3-Fluoro-4-((4-(4-(4-hydroxypiperidin-1-yl)benzamido)phenyl)amino)phenyl)-1,5-dimethyl-1H-pyrrole-2-carboxamide] | 21 |
| O=C(Nc1ccc(Nc2ccc(NC(=O)c3ccc4c(ccn4CCO)c3)cc2)cc1)c1ccc(N2CCC(O)CC2)cc1 [Compound 775] | 22 |
| Cc1cc(C(=O)Nc2ccc(Nc3ccc(NC(=O)c4ccc(N5CCC(O)CC5)cc4)cc3)cc2)c(C)[nH]1 [Compound 790] | 18 |
| Cn1cccc1C(=O)Nc1ccc(Nc2ccc(NC(=O)c3ccc(N4CCC(CO)CC4)cc3)cc2)cc1 [Compound 800, N-(4-((4-(4-(4-Hydroxymethylpiperidin-1-yl)benzamido)phenyl)amino)phenyl)-1-methyl-1H-pyrrole-2-carboxamide] | 23 |
| Cn1cccc1C(=O)Nc1ccc(Nc2ccc(NC(=O)c3ccc(N4CCC(O)CC4)c(F)c3)cc2)cc1 [Compound 815, N-(4-((4-(3-Fluoro-4-(4-hydroxypiperidin-1-yl)benzamido)phenyl)amino)phenyl)-1-methyl-1H-pyrrole-2-carboxamide] | 17 |
| CCOC(=O)Cn1c(Cl)ccc1C(=O)Nc1ccc(Nc2ccc(NC(=O)c3ccc(N4CCC(O)CC4)cc3)cc2)cc1 [Compound 830, Ethyl 2-(2-chloro-5-((4-((4-(4-(4-hydroxypiperidin-1-yl)benzamido)phenyl)amino)phenyl)carbamoyl)-1H-pyrrol-1-yl)acetate] | 15 |
| O=C(Nc1ccc(Nc2ccc(NC(=O)c3cc[nH]c3)cc2)c(F)c1)c1ccc(N2CCC(O)CC2)cc1 [Compound 860, N-(4-((2-Fluoro-4-(4-(4-hydroxypiperidin-1-yl)benzamido)phenyl)amino)phenyl)-1H-pyrrole-3-carboxamide] | 17 |
| N#Cc1cc(NC(=O)c2ccc(N3CCC(C(F)(F)F)CC3)cc2)ccc1Nc1ccc(NC(=O)c2cc[nH]c2)cc1 [Compound 885, N-(4-((2-Cyano-4-(4-(4-trifluoromethylpiperidin-1-yl)benzamido)phenyl)amino)phenyl)-1H-pyrrole-3-carboxamide] | 21 |
| CCn1c(C)ccc1C(=O)Nc1ccc(Nc2ccc(NC(=O)c3ccc(N4CCC(O)CC4)cc3)cc2)cc1 [Compound 900] | 24 |
